# Laboratory results reported in patent publication US9669141B2, “Tissue-engineered pumps and valves and uses thereof” (President and Fellows of Harvard College, priority 2012, dated 2017).
# System: Jellyfish swimming muscle
# Experiment: Excitation-contraction uncoupling of jellyfish swimming muscle during optical mapping
# Format: in vivo, Aurelia aurita
# Conditions: juvenile jellyfish, artificial seawater at room temperature
# Procedure: PMDS-coated glass cover slips with cardiomyocyte monolayers of medusoid muscle architecture were assayed in a custom-made optical mapping system (FIGS. 7i-o) by adapting previously described protocols. Briefly, the cultures were incubated for 5 minutes in 8 μM RH-237 voltage-sensitive dye (Iex/Iem in DMSO=˜550/˜800 nm; Molecular Probes) in Tyrode's solution, then washed with Tyrode's solution. During recording, the tissue was placed in Tyrode's solution containing 10 μM excitation-contraction uncoupler blebbistatin, thereby minimizing motion artifacts. All solutions were maintained at 35-37° C. A platinum point electrode connected to a Grass S48 stimulator (Grass technologies, West Warwick, R.I. 02893, USA) was placed ˜1 mm above the culture surface (FIG. 7i) and used to apply point stimuli (2 Hz, 5-8 V, 10-ms duration). Imaging was performed using an inverted microscope (Zeiss Axiovert 200; Carl Zeiss MicroImaging, LLC Thornwood, N.Y. 10594, USA) equipped with a 40× Plan-Neofluar (1.3 NA) oil-immersion objective, a fluorescence light source (Hamamatsu L2422 100 Watt Mercury-Xenon lamp) and a filter cube appropriate for RH237 imaging (Zeiss EX BP530-585, DC FT600, EM LP615). Fluorescence shutter opening and closing was synchronized with the pacing stimulus. Membrane voltage signals were optically recorded at 5 Hz using a honeycomb of 124 independent optical fibers, each monitoring an approximately circular field of view of 25 μm in diameter (FIGS. 6j and 6k) and each connected to a discrete photodiode transimpedance amplifier. The outputs of the photodiode amplifiers were digitized by a bank of differential amplifiers and DAQ cards (National Instruments Corporation, Austin, Tex. 78759, USA). Digitized signals were processed using custom-made software implemented in MATLAB (MathWorks, Natick, Mass. 01760, USA) (FIG. 7l). Activation times, defined as the time point of maximum positive slope of the action potential, served to calculate isochronal maps of activation and velocity vector fields across the field of view monitored by the LED array (FIGS. 7m and 7o).
# Optical mapping in jellyfish (FIG. 7a-7h) was performed as in medusoid coverslips except for the following differences. All procedures were carried out in artificial seawater at room temperature (KENT Marine Sea Salt, KENT Marine Sea, 5401 West Oakwood Park Drive, Franklin, Wis. 53132). […] Thus, to constrain movement, an additional cover slip was placed on top of the jellyfish using vacuum grease as a spacer. […] Subsequently, activation times, isochronal maps and velocity vector fields were calculated as above (FIGS. 7e-7h).
row,SMILES,sensitivity of jellyfish swimming muscle to excitation-contraction uncoupling agents
1,"CC(=O)C(C)=NO [2,3-butanedione monoxime (BDM), 2,3-butanedione monoxime]",insensitive
2,Cc1ccc2c(c1)C(=O)C1(O)CCN(c3ccccc3)C1=N2 (stereo not shown) [blebbistatin],insensitive
3,C=C1[C@@H](C)[C@H]2[C@H](Cc3ccccc3)NC(=O)[C@]23[C@H](OC(C)=O)/C=C/[C@@](C)(O)C(=O)[C@@H](C)C/C=C/[C@H]3[C@@H]1O [cytochalasin D],insensitive
4,O=C1CN(/N=C/c2ccc(-c3ccc([N+](=O)[O-])cc3)o2)C(O)=N1 [dantrolene sodium],insensitive
